Laboratory results reported in publication PMC7400788, “RAF dimer inhibition enhances the antitumor activity of MEK inhibitors in K‐RAS mutant tumors” (Molecular Oncology, 2020).
Like-named read-outs stand apart in the source and are kept apart here.

Legend:
WT B‐RAF [1] = molecular target: T1, WT B‐RAF (Homo sapiens, UniProt P15056, V600E); experiment: TR-FRET kinase assay, MEK1 (K97R) substrate; type: biochemical
T1 construct: gene BRAF; overexpressed in HEK293 cells, immunoprecipitated

WT C‐RAF = molecular target: T2, WT C‐RAF (Homo sapiens, UniProt P04049); experiment: TR-FRET kinase assay, MEK1 (K97R) substrate; type: biochemical
T2 construct: gene RAF1; overexpressed in HEK293 cells, immunoprecipitated

WT B‐RAF [2] = molecular target: T3, WT B‐RAF (Homo sapiens, UniProt P15056); experiment: TR-FRET kinase assay, MEK1 (K97R) substrate; type: biochemical
T3 construct: gene BRAF; overexpressed in HEK293 cells, immunoprecipitated

EGFR = EGFR (Homo sapiens, UniProt P00533); experiment: biochemical kinase assay (details not told)
Text: biochemical kinase assay (details not told) on EGFR | Biochemical activity of compound C against WT B‐RAF, B‐RAF^V600E, C‐RAF, and EGFR

[3] = read-out: BGB-283 IC50 (nM) / 1 h
[4] = 1 mM ATP, 1 h pre-incubation, room temperature, time-dependent inhibition (6 h and 24 h pre-incubation also tested), read-out: Compound C IC50 (nM) / 1 h

T1 sequence (P15056 2-766 V600E): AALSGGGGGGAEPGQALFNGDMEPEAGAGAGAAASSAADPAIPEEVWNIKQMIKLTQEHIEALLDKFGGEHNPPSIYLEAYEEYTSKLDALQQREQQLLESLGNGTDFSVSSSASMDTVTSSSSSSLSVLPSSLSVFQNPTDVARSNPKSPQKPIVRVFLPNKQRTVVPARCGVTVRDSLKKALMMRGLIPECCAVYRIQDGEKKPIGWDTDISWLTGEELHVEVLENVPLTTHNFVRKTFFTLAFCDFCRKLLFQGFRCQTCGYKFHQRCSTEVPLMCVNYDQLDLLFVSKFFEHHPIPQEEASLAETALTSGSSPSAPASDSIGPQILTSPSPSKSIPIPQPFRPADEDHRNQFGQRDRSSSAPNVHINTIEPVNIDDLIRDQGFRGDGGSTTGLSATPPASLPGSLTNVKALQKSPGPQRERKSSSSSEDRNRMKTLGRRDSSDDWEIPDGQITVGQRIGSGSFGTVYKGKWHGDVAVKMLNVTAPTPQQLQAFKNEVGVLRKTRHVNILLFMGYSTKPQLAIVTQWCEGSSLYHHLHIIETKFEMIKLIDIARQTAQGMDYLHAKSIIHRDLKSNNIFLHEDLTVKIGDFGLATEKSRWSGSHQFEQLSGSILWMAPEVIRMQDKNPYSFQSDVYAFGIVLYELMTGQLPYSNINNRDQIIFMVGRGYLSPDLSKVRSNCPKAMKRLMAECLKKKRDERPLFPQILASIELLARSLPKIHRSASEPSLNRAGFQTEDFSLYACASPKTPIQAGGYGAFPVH
T3 sequence (P15056 2-766): as the sequence (P15056 2-766 V600E) above, with E599V counted along it
T2 sequence (P04049 whole entry): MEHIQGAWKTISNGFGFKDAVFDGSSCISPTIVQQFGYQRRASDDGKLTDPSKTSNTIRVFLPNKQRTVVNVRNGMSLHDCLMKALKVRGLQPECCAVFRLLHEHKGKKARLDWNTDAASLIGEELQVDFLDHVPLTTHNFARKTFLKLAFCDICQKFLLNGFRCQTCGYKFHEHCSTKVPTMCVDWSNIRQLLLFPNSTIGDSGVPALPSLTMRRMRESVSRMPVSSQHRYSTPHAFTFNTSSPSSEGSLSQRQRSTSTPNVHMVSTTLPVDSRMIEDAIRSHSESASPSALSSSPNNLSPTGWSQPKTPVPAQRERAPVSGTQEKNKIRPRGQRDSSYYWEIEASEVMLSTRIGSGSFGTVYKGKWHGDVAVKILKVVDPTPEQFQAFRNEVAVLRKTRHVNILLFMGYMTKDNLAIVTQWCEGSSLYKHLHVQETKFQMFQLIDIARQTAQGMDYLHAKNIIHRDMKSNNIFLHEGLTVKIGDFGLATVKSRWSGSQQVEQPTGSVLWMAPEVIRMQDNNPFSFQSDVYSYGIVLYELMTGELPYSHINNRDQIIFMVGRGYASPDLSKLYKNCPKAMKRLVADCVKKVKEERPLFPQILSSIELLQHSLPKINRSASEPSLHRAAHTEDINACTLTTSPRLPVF
Chain of EGFR (P00533 25-1210): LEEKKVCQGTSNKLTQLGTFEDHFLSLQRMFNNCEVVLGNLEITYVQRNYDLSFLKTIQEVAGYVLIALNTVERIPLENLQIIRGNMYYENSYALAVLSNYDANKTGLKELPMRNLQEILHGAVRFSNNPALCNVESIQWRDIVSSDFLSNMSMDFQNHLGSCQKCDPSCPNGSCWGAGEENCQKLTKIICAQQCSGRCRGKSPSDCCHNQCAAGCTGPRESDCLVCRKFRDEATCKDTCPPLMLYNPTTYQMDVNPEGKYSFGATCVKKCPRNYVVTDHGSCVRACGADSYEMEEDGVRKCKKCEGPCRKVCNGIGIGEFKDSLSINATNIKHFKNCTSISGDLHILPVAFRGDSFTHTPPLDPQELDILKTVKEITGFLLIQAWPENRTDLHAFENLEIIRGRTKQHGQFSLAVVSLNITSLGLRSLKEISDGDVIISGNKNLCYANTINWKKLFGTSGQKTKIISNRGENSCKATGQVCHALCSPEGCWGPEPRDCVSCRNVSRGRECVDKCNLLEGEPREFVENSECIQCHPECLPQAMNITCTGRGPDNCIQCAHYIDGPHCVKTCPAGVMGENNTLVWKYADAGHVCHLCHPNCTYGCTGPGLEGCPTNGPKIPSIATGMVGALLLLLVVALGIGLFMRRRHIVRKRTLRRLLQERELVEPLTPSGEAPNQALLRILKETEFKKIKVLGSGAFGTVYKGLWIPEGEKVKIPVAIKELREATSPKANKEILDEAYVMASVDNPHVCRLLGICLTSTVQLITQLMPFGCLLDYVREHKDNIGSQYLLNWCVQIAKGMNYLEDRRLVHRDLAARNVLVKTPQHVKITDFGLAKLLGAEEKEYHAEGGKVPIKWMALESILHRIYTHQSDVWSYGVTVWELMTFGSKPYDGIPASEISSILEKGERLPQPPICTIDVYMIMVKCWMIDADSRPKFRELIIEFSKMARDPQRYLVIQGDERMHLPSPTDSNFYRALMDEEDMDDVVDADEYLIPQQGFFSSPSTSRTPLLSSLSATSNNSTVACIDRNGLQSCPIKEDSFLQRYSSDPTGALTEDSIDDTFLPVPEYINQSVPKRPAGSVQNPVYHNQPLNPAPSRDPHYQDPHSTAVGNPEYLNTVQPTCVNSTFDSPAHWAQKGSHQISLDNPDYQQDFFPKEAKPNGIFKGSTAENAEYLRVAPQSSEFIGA

| Structure (SMILES) | IC50 (WT B‐RAF [1]; [3]) [nM] | IC50 (WT C‐RAF; [3]) [nM] | IC50 (WT B‐RAF [2]; [3]) [nM] | IC50 (EGFR) [nM] | IC50 (WT B‐RAF [1]; [4]) [nM] | IC50 (WT C‐RAF; [4]) [nM] | IC50 (WT B‐RAF [2]; [4]) [nM] |
| --- | --- | --- | --- | --- | --- | --- | --- |
| O=C1CCc2c(Oc3ccc4c(c3)[C@@H]3[C@H](O4)[C@H]3c3nc4ccc(C(F)(F)F)cc4[nH]3)ccnc2N1 [BGB‐283] | 49 | 122 | 2310 | – | – | – | – |
| c1cc(-c2cnn3cc(-c4ccc(OCCN5CCCCC5)cc4)cnc23)ccn1 [compound C] | – | – | – | 1270 | 1.6 | 2.4 | 24 |
